Columns and labels:
Format in all cases: in vivo
Setaria faberi (SETFA) [1] = test: Post-emergence herbicidal glasshouse test; conditions: post-emergence (sprayed after 8 days cultivation), evaluated after 13 days, 100=total damage to plant, 0=no damage to plant; for pest or weed control at 1000 g/ha: Setaria faberi, 312 h, read-out: POST Application SETFA, damage to plant; for POST Application SETFA, damage to plant: 1000 g/ha
Description: (§1) Seeds of a variety of test species were sown in standard soil in pots (Alopecurus myosuroides (ALOMY), Setaria faberi (SETFA), Echinochloa crus-galli (ECHCG), Solanum nigrum (SOLNI) and Amaranthus retoflexus (AMARE)). After cultivation for one day (pre-emergence) or after 8 days cultivation (post-emergence) under controlled conditions in a glasshouse (at 24/16° C., day/night; 14 hours light; 65% humidity), the plants were sprayed with an aqueous spray solution derived from the formulation of the technical active ingredient in acetone/water (50:50) solution containing 0.5% Tween 20 (polyoxyethelyene sorbitan monolaurate, CAS RN 9005-64-5). Compounds were applied at 1000 g/ha. The test plants were then grown in a glasshouse under controlled conditions in a glasshouse (at 24/16° C., day/night; 14 hours light; 65% humidity) and watered twice daily. After 13 days for pre and post-emergence, the test was evaluated (100=total damage to plant; 0=no damage to plant).

Solanum nigrum (SOLNI) [2] = test: Post-emergence herbicidal glasshouse test; conditions: post-emergence (sprayed after 8 days cultivation), evaluated after 13 days, 100=total damage to plant, 0=no damage to plant; for pest or weed control at 1000 g/ha: Solanum nigrum, 312 h, read-out: POST Application SOLNI, damage to plant; for POST Application SOLNI, damage to plant: 1000 g/ha
Description: as §1

[3] = test system: Alopecurus myosuroides (ALOMY); test: Post-emergence herbicidal glasshouse test; conditions: post-emergence (sprayed after 8 days cultivation), evaluated after 13 days, 100=total damage to plant, 0=no damage to plant; for pest or weed control at 1000 g/ha: Alopecurus myosuroides, 312 h, read-out: POST Application ALOMY, damage to plant; for POST Application ALOMY, damage to plant: 1000 g/ha
Description: as §1

[4] = test system: Echinochloa crus-galli (ECHCG); test: Post-emergence herbicidal glasshouse test; conditions: post-emergence (sprayed after 8 days cultivation), evaluated after 13 days, 100=total damage to plant, 0=no damage to plant; for pest or weed control at 1000 g/ha: Echinochloa crus-galli, 312 h, read-out: POST Application ECHCG, damage to plant; for POST Application ECHCG, damage to plant: 1000 g/ha
Description: as §1

[5] = test system: Amaranthus retoflexus (AMARE); test: Post-emergence herbicidal glasshouse test; conditions: post-emergence (sprayed after 8 days cultivation), evaluated after 13 days, 100=total damage to plant, 0=no damage to plant; for pest or weed control at 1000 g/ha: Amaranthus retroflexus, 312 h, read-out: POST Application AMARE, damage to plant; for POST Application AMARE, damage to plant: 1000 g/ha
Description: as §1

Setaria faberi (SETFA) [6] = test: Pre-emergence herbicidal glasshouse test; conditions: pre-emergence (sprayed after one day cultivation), evaluated after 13 days, 100=total damage to plant, 0=no damage to plant; for pest or weed control at 1000 g/ha: Setaria faberi, 312 h, read-out: PRE Application SETFA, damage to plant; for PRE Application SETFA, damage to plant: 1000 g/ha
Description: as §1

Solanum nigrum (SOLNI) [7] = test: Pre-emergence herbicidal glasshouse test; conditions: pre-emergence (sprayed after one day cultivation), evaluated after 13 days, 100=total damage to plant, 0=no damage to plant; for pest or weed control at 1000 g/ha: Solanum nigrum, 312 h, read-out: PRE Application SOLNI, damage to plant; for PRE Application SOLNI, damage to plant: 1000 g/ha
Description: as §1

[8] = test system: Alopecurus myosuroides (ALOMY); test: Pre-emergence herbicidal glasshouse test; conditions: pre-emergence (sprayed after one day cultivation), evaluated after 13 days, 100=total damage to plant, 0=no damage to plant; for pest or weed control at 1000 g/ha: Alopecurus myosuroides, 312 h, read-out: PRE Application ALOMY, damage to plant; for PRE Application ALOMY, damage to plant: 1000 g/ha
Description: as §1

[9] = test system: Echinochloa crus-galli (ECHCG); test: Pre-emergence herbicidal glasshouse test; conditions: pre-emergence (sprayed after one day cultivation), evaluated after 13 days, 100=total damage to plant, 0=no damage to plant; for pest or weed control at 1000 g/ha: Echinochloa crus-galli, 312 h, read-out: PRE Application ECHCG, damage to plant; for PRE Application ECHCG, damage to plant: 1000 g/ha
Description: as §1

[10] = test system: Amaranthus retoflexus (AMARE); test: Pre-emergence herbicidal glasshouse test; conditions: pre-emergence (sprayed after one day cultivation), evaluated after 13 days, 100=total damage to plant, 0=no damage to plant; for pest or weed control at 1000 g/ha: Amaranthus retroflexus, 312 h, read-out: PRE Application AMARE, damage to plant; for PRE Application AMARE, damage to plant: 1000 g/ha
Description: as §1

| Compound | pest or weed control at 1000 g/ha (Setaria faberi (SETFA) [1]) [%] | pest or weed control at 1000 g/ha (Solanum nigrum (SOLNI) [2]) [%] | pest or weed control at 1000 g/ha [3] [%] | pest or weed control at 1000 g/ha [4] [%] | pest or weed control at 1000 g/ha [5] [%] | pest or weed control at 1000 g/ha (Setaria faberi (SETFA) [6]) [%] | pest or weed control at 1000 g/ha (Solanum nigrum (SOLNI) [7]) [%] | pest or weed control at 1000 g/ha [8] [%] | pest or weed control at 1000 g/ha [9] [%] | pest or weed control at 1000 g/ha [10] [%] | POST Application SETFA, damage to plant (Setaria faberi (SETFA) [1]) | POST Application SOLNI, damage to plant (Solanum nigrum (SOLNI) [2]) | POST Application ALOMY, damage to plant [3] | POST Application ECHCG, damage to plant [4] | POST Application AMARE, damage to plant [5] | PRE Application SETFA, damage to plant (Setaria faberi (SETFA) [6]) | PRE Application SOLNI, damage to plant (Solanum nigrum (SOLNI) [7]) | PRE Application ALOMY, damage to plant [8] | PRE Application ECHCG, damage to plant [9] | PRE Application AMARE, damage to plant [10] |
| --- | --- | --- | --- | --- | --- | --- | --- | --- | --- | --- | --- | --- | --- | --- | --- | --- | --- | --- | --- | --- |
| CCN(CC)c1nc2nc(C(F)(F)F)c(C(=O)C3C(=O)CCCC3=O)cc2cc1F [Compound 1.73, 2-[7-(diethylamino)-6-fluoro-2-trifluoromethyl-[1,8]-naphthyridine-3-carbony]-cyclohexane-1,3-dione] | 80 | 70 | 60 | 80 | 70 | 100 | 100 | 60 | 100 | 70 |  |  |  |  |  |  |  |  |  |  |
| O=C1CCCC(=O)C1C(=O)c1cc2cc(F)c(NC3CC3)nc2nc1C(F)(F)F [Compound 1.92, 2-[7-(cyclopropylamino)-6-fluoro-2-trifluoromethyl-[1,8]-naphthyridine-3-carbony]-cyclohexane-1,3-dione] |  |  |  |  |  |  |  |  |  |  | 80 | 80 | 80 | 80 | 100 | 100 | 100 | 60 | 100 | 100 |
| CC(C)c1nc2nc(C(F)(F)F)c(C(=O)C3C(=O)CCCC3=O)cc2cc1F [Compound 1.75, 2-[6-fluoro-7-methylethyl-2-trifluoromethyl-[1,8]-naphthyridine-3-carbony]-cyclohexane-1,3-dione] | 90 | 90 | 80 | 90 | 80 | 90 | 90 | 80 | 90 | 80 |  |  |  |  |  |  |  |  |  |  |
| CCCCc1nc2nc(C(F)(F)F)c(C(=O)C3C(=O)CCCC3=O)cc2cc1F [Compound 1.86, 2-[7-butyl-6-fluoro-2-trifluoromethyl-[1,8]-naphthyridine-3carbony]-cyclohexane-1,3-dione] | 90 | 90 | 70 | 80 | 100 | 100 | 100 | 80 | 100 | 100 |  |  |  |  |  |  |  |  |  |  |
| O=C1CCCC(=O)C1C(=O)c1cc2cc(F)c(NCC(F)(F)F)nc2nc1C(F)(F)F [Compound 1.90, 2-[6-fluoro-7-(2,2,2-trifluoroethylamino)-2-trifluoromethyl-[1,8]-naphthyridine-3-carbony]-cyclohexane-1,3-dione] | 90 | 90 | 80 | 90 | 80 | 100 | 100 | 70 | 100 | 100 |  |  |  |  |  |  |  |  |  |  |
| CCc1nc2nc(C(F)(F)F)c(C(=O)C3C(=O)CCCC3=O)cc2cc1F [Compound 1.67, 2-[7-ethyl-6-fluoro-2-trifluoromethyl-[1,8]-naphthyridine-3-carbony]-cyclohexane-1,3-dione] |  |  |  |  |  |  |  |  |  |  | 90 | 100 | 90 | 90 | 80 | 100 | 100 | 90 | 100 | 100 |
| O=C1CCCC(=O)C1C(=O)c1cc2ccc(Br)nc2nc1C(F)(F)F [Compound 1.99] | 80 | 70 | 30 | 80 | 100 | 40 | 90 | 10 | 90 | 100 |  |  |  |  |  |  |  |  |  |  |
| Cc1c(F)cnc2nc(C(F)(F)F)c(C(=O)C3C(=O)CCCC3=O)cc12 [Compound 1.62, 2-[6-Fluoro-5-methyl-2-trifluoromethyl-[1,8]-naphthyridine-3-carbony]-cyclohexane-1,3-dione] | 70 | 80 | 0 | 70 | 50 | 30 | 60 | 0 | 50 | 20 |  |  |  |  |  |  |  |  |  |  |
| C#CCNc1nc2nc(C(F)(F)F)c(C(=O)C3C(=O)CCCC3=O)cc2cc1F [Compound 1.103] |  |  |  |  |  |  |  |  |  |  | 90 | 90 | 70 | 80 | 80 | 100 | 100 | 40 | 100 | 80 |
| Cc1nc2nc(C(F)F)c(C(=O)C3C(=O)CCCC3=O)cc2cc1F [Compound 1.78, 2-(2-difluoromethyl-6-fluoro-7-methyl-[1,8]-naphthyridine-3-carbonyl)-cyclohexane-1,3-dione] | 90 | 80 | 60 | 90 | 100 | 100 | 100 | 80 | 100 | 100 |  |  |  |  |  |  |  |  |  |  |
| CC(C)(F)c1ccc2cc(C(=O)C3C(=O)CCCC3=O)c(C(F)(F)F)nc2n1 [Compound 1.37] |  |  |  |  |  |  |  |  |  |  | 90 | 70 | 80 | 90 | 100 | 100 | 100 | 80 | 100 | 100 |
| CCCOCCn1c(=O)ccc2cc(C(=O)C3C(=O)CCCC3=O)c(C(F)(F)F)nc21 [Compound 2.17] |  |  |  |  |  |  |  |  |  |  | 90 | 90 | 30 | 80 | 90 | 50 | 80 | 10 | 80 | 40 |

Reference: US8461083B2, “Herbicidal compounds” (Syngenta Limited, priority 2008, dated 2013)
